Laboratory results as given in patent publication US11534457B2, “Use of dextran sulfate” (priority 2017, dated 2022).

Tested on: severe traumatic brain injury (sTBI)
Assay: sTBI in rats, brain gene expression arrays and pathway analysis (Example 9)
Type: in vivo, Male Wistar rats
Details: 2 days after TBI
Description: The experimental protocol used in this study was approved by the Ethical Committee of the Catholic University of Rome, according to international standards and guidelines for animal care. Male Wistar rats of 300-350 g body weight were fed with standard laboratory diet and water ad libitum in a controlled environment. As the anesthetic mixture, the animals received 35 mg/kg b.w. ketamine and 0.25 mg/kg body weight midazolam by i.p. injection. Severe traumatic brain injury (sTBI) was induced by dropping a 450 g weight from 2 m height on to the rat head that had been protected by a metal disk previously fixed on the skull, according to the “weight drop” impact acceleration model (Marmarou et al., A new model of diffuse brain injury in rats. Part I: Pathophysiology and biomechanics. J Neurosurg. 1994; 80: 291-300). […] At the end of each period of treatment, rats were anesthetized again and then immediately sacrificed.
LMW-DS (Tikomed AB) was provided at a stock concentration of 20 mg/ml and was kept in a temperature-monitored refrigerator at 4° C. LMW-DS aliquots were diluted to the appropriate dosing concentration in sterile saline prior to delivery of a single subcutaneous injection.
Three doses of LMW-DS were administered subcutaneously 30 minutes post-TBI. The animals were sacrificed at 2 days post-TBI. The animals were divided into the following subgroups:
Three doses of LMW-DS were administered subcutaneously 30 minutes post-TBI. The animals were sacrificed at 7 days post-TBI. The animals were divided into the following subgroups:
An in vivo craniectomy was performed on all animals during anesthesia. After carefully removing the rat's skull, the brain was exposed and removed with a surgical spatula and quickly dropped in RNALater and preserved at 4° C. for further processing.
RNA extraction and array processing was carried out by SourceBioscience. The arrays used were the Agilent Rat expression arrays.
Statistical analysis was carried out using the Metaboanalyst software package. Gene expression changes of 10% with a p<0.05 were regarded as significant.
Pathway analysis of the differentially regulated genes was carried out using the Ingenuity pathway analysis package. The analysis was performed with special reference to pathways and molecular processes and diseases associated with neurodegenerative disease, including dementia, Alzheimer's disease, ALS, TBI and stroke, and with scarring and fibrosis, including glaucoma and normal pressure hydrocephalus (NPH) after subarachnoid haemorrhage.

[1] = TBI + 5 mg/kg LMW-DS, relative to control

Substance: low molecular weight dextran sulfate [LMW-DS]
- effect on canonical pathway Adrenomedullin Signaling pathway (TBI + 5 mg/kg LMW-DS): Inhibited
- effect on canonical pathway NF-κ13 Signaling (TBI + 5 mg/kg LMW-DS): Inhibited
- effect on canonical pathway Osteoarthritis Pathway (TBI + 5 mg/kg LMW-DS): Inhibited
- effect on canonical pathway Role of NFAT in Cardiac Hypertrophy (TBI + 5 mg/kg LMW-DS): Inhibited
- z score, Abdominal cancer (TBI + 5 mg/kg LMW-DS): −2.553
- z score, Abdominal carcinoma (TBI + 5 mg/kg LMW-DS): −2.631
- z score, Abdominal neoplasm (TBI + 5 mg/kg LMW-DS): −0.927
- z score, Apoptosis (TBI + 5 mg/kg LMW-DS): 0.601
- z score, Behavior (TBI + 5 mg/kg LMW-DS): −2.009
- z score, Carcinoma (TBI + 5 mg/kg LMW-DS): −2.071
- z score, Cell death (TBI + 5 mg/kg LMW-DS): 0.051
- z score, Cell death of antigen presenting cells (TBI + 5 mg/kg LMW-DS): −0.62
- z score, Cell death of immune cells (TBI + 5 mg/kg LMW-DS): −1
- z score, Cell death of tumor cell lines (TBI + 5 mg/kg LMW-DS): −1.947
- z score, Cell movement (TBI + 5 mg/kg LMW-DS): −3.723
- z score, Cell movement of tumor cell lines (TBI + 5 mg/kg LMW-DS): −2.078
- z score, Cell proliferation of leukocyte cell lines (TBI + 5 mg/kg LMW-DS): −2.754
- z score, Cellular homeostasis (TBI + 5 mg/kg LMW-DS): −3.19
- z score, Chemotaxis (TBI + 5 mg/kg LMW-DS): −3.642
- z score, Development of vasculature (TBI + 5 mg/kg LMW-DS): −1.534
- z score, Digestive organ tumor (TBI + 5 mg/kg LMW-DS): −1.149
- z score, Digestive system cancer (TBI + 5 mg/kg LMW-DS): −2.221
- z score, Edema (TBI + 5 mg/kg LMW-DS): 3.386
- z score, Epithelial neoplasm (TBI + 5 mg/kg LMW-DS): −1.393
- z score, Extracranial solid tumor (TBI + 5 mg/kg LMW-DS): −0.992
- z score, Feeding (TBI + 5 mg/kg LMW-DS): −0.895
- z score, Growth of tumor (TBI + 5 mg/kg LMW-DS): −1.233
- z score, Hematologic cancer (TBI + 5 mg/kg LMW-DS): −1.067
- z score, Incidence of tumor (TBI + 5 mg/kg LMW-DS): −0.731
- z score, Leukocyte migration (TBI + 5 mg/kg LMW-DS): −2.163
- z score, Leukopoiesis (TBI + 5 mg/kg LMW-DS): −3.549
- z score, Lymphocyte homeostasis (TBI + 5 mg/kg LMW-DS): −2.94
- z score, Lymphocytic cancer (TBI + 5 mg/kg LMW-DS): −0.48
- z score, Lymphocytic neoplasm (TBI + 5 mg/kg LMW-DS): −0.48
- z score, Lymphopoiesis (TBI + 5 mg/kg LMW-DS): −3.105
- z score, Lymphoproliferative disorder (TBI + 5 mg/kg LMW-DS): −0.48
- z score, Malignant solid tumor (TBI + 5 mg/kg LMW-DS): −1.492
- z score, Metabolism of hormone (TBI + 5 mg/kg LMW-DS): −1.632
- z score, Migration of cells (TBI + 5 mg/kg LMW-DS): −3.087
- z score, Necrosis (TBI + 5 mg/kg LMW-DS): −1.503
- z score, Neoplasia of leukocytes (TBI + 5 mg/kg LMW-DS): −0.48
- z score, Non-melanoma solid tumor (TBI + 5 mg/kg LMW-DS): −1.249
- z score, Proliferation of hematopoietic progenitor cells (TBI + 5 mg/kg LMW-DS): −2.951
- z score, Quantity of cells (TBI + 5 mg/kg LMW-DS): −3.092
- z score, Quantity of epithelial tissue (TBI + 5 mg/kg LMW-DS): −0.028
- z score, Quantity of neuroglia (TBI + 5 mg/kg LMW-DS): −1.446
- z score, Resorption of bone (TBI + 5 mg/kg LMW-DS): −0.478
- z score, Secretion of molecule (TBI + 5 mg/kg LMW-DS): 1.634
- z score, Synthesis of hormone (TBI + 5 mg/kg LMW-DS): −1.632
- z score, Transport of molecule (TBI + 5 mg/kg LMW-DS): 0.248
- z score, Vasculogenesis (TBI + 5 mg/kg LMW-DS): −2.274
- z score, canonical pathway Adrenomedullin Signaling pathway [1]: −2.236
- z score, canonical pathway NF-κb Signaling [1]: −2
- z score, canonical pathway Osteoarthritis Pathway [1]: −2.646
- z score, canonical pathway Role of NFAT in Cardiac Hypertrophy [1]: −1.63
- z score, Apoptosis (TBI + 15 mg/kg LMW-DS): −0.502
- z score, Apoptosis of tumor cell lines (TBI + 15 mg/kg LMW-DS): 0.09
- z score, Behavior (TBI + 15 mg/kg LMW-DS): −0.139
- z score, Cell death (TBI + 15 mg/kg LMW-DS): −0.141
- z score, Necrosis (TBI + 15 mg/kg LMW-DS): −0.477
- z score, Quantity of blood cells (TBI + 15 mg/kg LMW-DS): −0.34
- z score, Quantity of cells (TBI + 15 mg/kg LMW-DS): −0.797
- z score, Quantity of lymphocytes (TBI + 15 mg/kg LMW-DS): −0.943
- Diseases or functions annotation: Abdominal cancer (TBI + 1 mg/kg LMW-DS): Inhibited
- Diseases or functions annotation: Abdominal carcinoma (TBI + 1 mg/kg LMW-DS): Inhibited
- Diseases or functions annotation: Abdominal neoplasm (TBI + 1 mg/kg LMW-DS): Inhibited
- Diseases or functions annotation: Activation of blood cells (TBI + 1 mg/kg LMW-DS): Activated
- Diseases or functions annotation: Activation of cells (TBI + 1 mg/kg LMW-DS): Activated
- Diseases or functions annotation: Activation of leukocytes (TBI + 1 mg/kg LMW-DS): Activated
- Diseases or functions annotation: Activation of lymphocytes (TBI + 1 mg/kg LMW-DS): Inhibited
- Diseases or functions annotation: Adhesion of tumor cell lines (TBI + 1 mg/kg LMW-DS): Activated
- Diseases or functions annotation: Apoptosis (TBI + 1 mg/kg LMW-DS): Inhibited
- Diseases or functions annotation: Apoptosis of muscle cells (TBI + 1 mg/kg LMW-DS): Activated
- Diseases or functions annotation: Behavior (TBI + 1 mg/kg LMW-DS): Activated
- Diseases or functions annotation: Binding of tumor cell lines (TBI + 1 mg/kg LMW-DS): Activated
- Diseases or functions annotation: Carcinoma (TBI + 1 mg/kg LMW-DS): Inhibited
- Diseases or functions annotation: Cell death (TBI + 1 mg/kg LMW-DS): Inhibited
- Diseases or functions annotation: Cell death of blood cells (TBI + 1 mg/kg LMW-DS): Activated
- Diseases or functions annotation: Cell death of immune cells (TBI + 1 mg/kg LMW-DS): Activated
- Diseases or functions annotation: Cell movement (TBI + 1 mg/kg LMW-DS): Activated
- Diseases or functions annotation: Cell movement of muscle cells (TBI + 1 mg/kg LMW-DS): Inhibited
- Diseases or functions annotation: Cell movement of vascular smooth muscle cells (TBI + 1 mg/kg LMW-DS): Inhibited
- Diseases or functions annotation: Cell proliferation of T lymphocytes (TBI + 1 mg/kg LMW-DS): Inhibited
- Diseases or functions annotation: Cellular homeostasis (TBI + 1 mg/kg LMW-DS): Activated
- Diseases or functions annotation: Development of connective tissue cells (TBI + 1 mg/kg LMW-DS): Inhibited
- Diseases or functions annotation: Differentiation of bone cells (TBI + 1 mg/kg LMW-DS): Inhibited
- Diseases or functions annotation: Differentiation of connective tissue cells (TBI + 1 mg/kg LMW-DS): Activated
- Diseases or functions annotation: Differentiation of hematopoietic progenitor cells (TBI + 1 mg/kg LMW-DS): Activated
- Diseases or functions annotation: Differentiation of osteoclasts (TBI + 1 mg/kg LMW-DS): Inhibited
- Diseases or functions annotation: Digestive organ tumor (TBI + 1 mg/kg LMW-DS): Inhibited
- Diseases or functions annotation: Experimentally-induced arthritis (TBI + 1 mg/kg LMW-DS): Inhibited
- Diseases or functions annotation: Extracranial solid tumor (TBI + 1 mg/kg LMW-DS): Activated
- Diseases or functions annotation: Genital tumor (TBI + 1 mg/kg LMW-DS): Activated
- Diseases or functions annotation: Incidence of tumor (TBI + 1 mg/kg LMW-DS): Inhibited
- Diseases or functions annotation: Inflammation of absolute anatomical region (TBI + 1 mg/kg LMW-DS): Inhibited
- Diseases or functions annotation: Inflammation of body cavity (TBI + 1 mg/kg LMW-DS): Inhibited
- Diseases or functions annotation: Inflammation of joint (TBI + 1 mg/kg LMW-DS): Inhibited
- Diseases or functions annotation: Inflammation of organ (TBI + 1 mg/kg LMW-DS): Inhibited
- Diseases or functions annotation: Inflammatory response (TBI + 1 mg/kg LMW-DS): Activated
- Diseases or functions annotation: Interaction of mononuclear leukocytes (TBI + 1 mg/kg LMW-DS): Activated
- Diseases or functions annotation: Leukocyte migration (TBI + 1 mg/kg LMW-DS): Activated
- Diseases or functions annotation: Leukopoiesis (TBI + 1 mg/kg LMW-DS): Activated
- Diseases or functions annotation: Lymphopoiesis (TBI + 1 mg/kg LMW-DS): Activated
- Diseases or functions annotation: Malignant solid tumor (TBI + 1 mg/kg LMW-DS): Inhibited
